Laboratory results published in PMC3076703 (Pharmacogenetics and genomics, 2010).
Positions count from the first letter of the chain named.

Tests used:
[1] = test system: UGTs 1A1, 1A3, 1A6, 1A7, 1A9, 2B4, 2B7, 2B10, 2B11, 2B15; type: in vitro ADME, human; conditions: other UGTs screened; up to 1 mg of UGT-overexpressing cell homogenate
[2] = target: T1, UGT1A8 (Homo sapiens, UniProt Q9HAW9); assay: Glucuronidation assay, UGT1A8-overexpressing HEK293 cell homogenate; type: in vitro ADME
T1 sequence (Q9HAW9 26-530): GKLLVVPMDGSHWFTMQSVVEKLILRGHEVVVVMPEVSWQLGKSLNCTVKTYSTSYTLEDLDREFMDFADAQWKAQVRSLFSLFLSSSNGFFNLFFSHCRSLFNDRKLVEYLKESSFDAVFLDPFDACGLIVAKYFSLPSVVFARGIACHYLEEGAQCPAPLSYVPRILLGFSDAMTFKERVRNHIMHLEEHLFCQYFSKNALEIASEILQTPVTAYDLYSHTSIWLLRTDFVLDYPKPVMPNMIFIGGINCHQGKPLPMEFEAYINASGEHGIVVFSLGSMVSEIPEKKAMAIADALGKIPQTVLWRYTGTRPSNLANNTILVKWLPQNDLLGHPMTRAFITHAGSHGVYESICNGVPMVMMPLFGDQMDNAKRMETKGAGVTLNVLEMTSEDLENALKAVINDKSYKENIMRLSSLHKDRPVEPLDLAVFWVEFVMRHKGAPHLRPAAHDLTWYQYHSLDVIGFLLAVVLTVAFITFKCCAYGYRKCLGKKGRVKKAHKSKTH

[3] = target: T2, UGT1A4^24Pro/48Val (Homo sapiens, UniProt P22310, L48V); type: in vitro ADME
T2 sequence (P22310 29-534 L48V): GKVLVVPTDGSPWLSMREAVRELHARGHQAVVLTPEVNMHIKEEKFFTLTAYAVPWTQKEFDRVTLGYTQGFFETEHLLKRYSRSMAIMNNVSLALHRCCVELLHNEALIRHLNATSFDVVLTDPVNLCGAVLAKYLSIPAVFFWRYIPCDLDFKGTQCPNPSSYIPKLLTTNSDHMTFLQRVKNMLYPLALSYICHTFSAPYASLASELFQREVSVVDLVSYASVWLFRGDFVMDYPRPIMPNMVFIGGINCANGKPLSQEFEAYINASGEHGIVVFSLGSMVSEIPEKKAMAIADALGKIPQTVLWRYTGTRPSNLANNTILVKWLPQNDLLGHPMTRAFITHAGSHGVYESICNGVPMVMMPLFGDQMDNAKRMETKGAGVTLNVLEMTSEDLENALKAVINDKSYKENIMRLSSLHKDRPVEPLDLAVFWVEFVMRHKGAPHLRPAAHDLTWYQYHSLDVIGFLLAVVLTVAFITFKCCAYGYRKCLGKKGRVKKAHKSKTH

[4] = target: T3, UGT1A4^24Pro/48Leu (Homo sapiens, UniProt P22310); assay: Glucuronidation assay, UGT1A4 24Pro/48Leu-overexpressing HEK293 cell homogenate; type: in vitro ADME
T3 sequence (P22310 29-534): T2 sequence (P22310 29-534 L48V) with V20L

[5] = target: T4, UGT2B17 (Homo sapiens, UniProt O75795); type: in vitro ADME
T4 sequence (O75795 24-530): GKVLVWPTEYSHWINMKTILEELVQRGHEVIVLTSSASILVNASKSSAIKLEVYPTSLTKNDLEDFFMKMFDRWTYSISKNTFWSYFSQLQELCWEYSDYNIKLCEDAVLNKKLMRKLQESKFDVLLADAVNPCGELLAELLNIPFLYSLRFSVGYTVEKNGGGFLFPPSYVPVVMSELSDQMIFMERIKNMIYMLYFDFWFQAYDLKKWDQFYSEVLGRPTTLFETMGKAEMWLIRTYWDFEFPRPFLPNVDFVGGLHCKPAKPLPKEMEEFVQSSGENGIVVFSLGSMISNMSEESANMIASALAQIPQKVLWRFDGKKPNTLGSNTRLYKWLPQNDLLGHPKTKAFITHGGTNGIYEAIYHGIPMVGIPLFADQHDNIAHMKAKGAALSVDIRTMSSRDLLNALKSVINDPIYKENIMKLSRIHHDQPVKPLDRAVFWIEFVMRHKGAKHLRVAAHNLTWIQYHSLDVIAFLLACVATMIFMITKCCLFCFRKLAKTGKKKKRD

[6] = individuals taking exemestane; cited from earlier work
[7] = target: T5, UGT1A4^24Thr/48Leu (Homo sapiens, UniProt P22310); assay: Glucuronidation assay, UGT1A4 24Thr/48Leu-overexpressing HEK293 cell homogenate; type: in vitro ADME
T5 sequence (P22310 29-534): T2 sequence (P22310 29-534 L48V) with V20L

[8] = human; cited from earlier work

| Structure (SMILES) | glucuronidation activity in UGT screen [1] | Km [2] | Vmax ([2]; normalized per μg UGT protein) | glucuronidation activity in UGT screen ([2]; up to 600 μmol/l substrate) | Km [3] | Vmax ([3]; normalized per μg UGT protein) | Km ([4]; UGT1A4 24Pro/48Leu) | Vmax ([4]; UGT1A4 24Pro/48Leu, normalized per μg UGT protein) | glucuronidation activity in UGT screen ([4]; UGT1A4, up to 600 μmol/l substrate) | Km [5] | Vmax ([5]; normalized per μg UGT protein) | glucuronidation activity in UGT screen ([5]; up to 600 μmol/l substrate) | plasma level as share of parent exemestane [6] | Km [7] | Vmax ([7]; normalized per μg UGT protein) | excreted as parent compound [8] | fecal excretion [8] | urinary excretion [8] |
| --- | --- | --- | --- | --- | --- | --- | --- | --- | --- | --- | --- | --- | --- | --- | --- | --- | --- | --- |
| C=C1C[C@H]2[C@@H]3CC[C@H](O)[C@@]3(C)CC[C@@H]2[C@@]2(C)C=CC(=O)C=C12 [17-dihydroexemestane] | None of the other UGTs screened in our assays exhibited any glucuronidation activity | 14 ± 3.9 µM | 0.30 ± 0.06 pmol/min/μg UGT protein | detectable activity | 36 ± 5.4 µM | 0.40 ± 0.03 pmol/min/μg UGT protein | 34 ± 3.9 µM | 0.27 ± 0.01 pmol/min/μg UGT protein | detectable activity | 15 ± 2.7 µM | 2.0 ± 0.25 pmol/min/μg UGT protein | detectable activity | 35–40% | 28 ± 7.8 µM | 0.26 ± 0.04 pmol/min/μg UGT protein | – | – | – |
| C=C1C[C@@H]2[C@H](CC[C@]3(C)C(=O)CC[C@@H]23)[C@@]2(C)C=CC(=O)C=C12 [exemestane, 6-methylenandrosta-1,4-diene-3,17-dione] | – | – | – | – | – | – | – | – | – | – | – | – | – | – | – | 1% | around 42% | around 42% |
